From the NIST ThermoML archive (doi:10.1016/j.jct.2011.01.014)

Test: xn = mol fraction of the nth substance listed
Details: 101 kPa, Liquid; for mass density: Vibrating tube method; for speed of sound: sound velocity cell

CC(=O)[O-].[NH3+]CCO [2-hydroxyethylammonium acetate] + CO
Details	mass density [kg/m3]	speed of sound [m/s]
288.15 K, x1 = 0.0492	850.323	1214.8
288.15 K, x1 = 0.0951	891.619	1276.8
288.15 K, x1 = 0.1987	958.564	1390.3
288.15 K, x1 = 0.29	1002.52	1476.1
288.15 K, x1 = 0.3786	1034.79	1545.4
288.15 K, x1 = 0.4825	1066.13	1618.4
288.15 K, x1 = 0.6007	1093.45	1688
288.15 K, x1 = 0.6711	1107.68	1725.1
288.15 K, x1 = 0.7797	1126.68	1740.8
288.15 K, x1 = 0.8297	1134.06	1797.8
288.15 K, x1 = 0.9328	1147.97	1795.3
288.15 K, x1 = 1	1154.7	1817.2
290.65 K, x1 = 0.0492	848.152	1207.2
290.65 K, x1 = 0.0951	889.567	1269.4
290.65 K, x1 = 0.1987	956.698	1383.4
290.65 K, x1 = 0.29	1000.78	1469.5
290.65 K, x1 = 0.3786	1033.16	1538.9
290.65 K, x1 = 0.4825	1064.58	1612.3
290.65 K, x1 = 0.6007	1091.92	1681.6
290.65 K, x1 = 0.6711	1106.19	1718.6
290.65 K, x1 = 0.7797	1125.18	1734.6
290.65 K, x1 = 0.8297	1132.65	1790.7
290.65 K, x1 = 0.9328	1146.53	1787.9
290.65 K, x1 = 1	1153.28	1810
293.15 K, x1 = 0.0492	845.97	1199.8
293.15 K, x1 = 0.0951	887.505	1262.1
293.15 K, x1 = 0.1987	954.823	1376.3
293.15 K, x1 = 0.29	999.035	1462.8
293.15 K, x1 = 0.3786	1031.5	1532.4
293.15 K, x1 = 0.4825	1063.02	1606.2
293.15 K, x1 = 0.6007	1090.45	1675.2
293.15 K, x1 = 0.6711	1104.7	1712.1
293.15 K, x1 = 0.7797	1123.69	1728.6
293.15 K, x1 = 0.8297	1131.24	1784
293.15 K, x1 = 0.9328	1145.1	1781.1
293.15 K, x1 = 1	1151.87	1803.2
295.65 K, x1 = 0.0492	843.786	1192.1
295.65 K, x1 = 0.0951	885.441	1254.6
295.65 K, x1 = 0.1987	952.95	1369.2
295.65 K, x1 = 0.29	997.283	1456
295.65 K, x1 = 0.3786	1029.84	1525.9
295.65 K, x1 = 0.4825	1061.45	1600
295.65 K, x1 = 0.6007	1088.98	1669.1
295.65 K, x1 = 0.6711	1103.21	1705.8
295.65 K, x1 = 0.7797	1122.2	1722.7
295.65 K, x1 = 0.8297	1129.83	1777.5
295.65 K, x1 = 0.9328	1143.67	1774.5
295.65 K, x1 = 1	1150.45	1796.8
298.15 K, x1 = 0.0492	841.599	1184.3
298.15 K, x1 = 0.0951	883.376	1247
298.15 K, x1 = 0.1987	951.074	1362.2
298.15 K, x1 = 0.29	995.529	1449.3
298.15 K, x1 = 0.3786	1028.18	1519.5
298.15 K, x1 = 0.4825	1059.89	1593.9
298.15 K, x1 = 0.6007	1087.51	1663
298.15 K, x1 = 0.6711	1101.72	1699.7
298.15 K, x1 = 0.7797	1120.71	1717
298.15 K, x1 = 0.8297	1128.41	1771.3
298.15 K, x1 = 0.9328	1142.24	1768.2
298.15 K, x1 = 1	1149.04	1790.7
300.65 K, x1 = 0.0492	839.407	1176.5
300.65 K, x1 = 0.0951	881.305	1239.5
300.65 K, x1 = 0.1987	949.197	1355.1
300.65 K, x1 = 0.29	993.775	1442.7
300.65 K, x1 = 0.3786	1026.52	1513.1
300.65 K, x1 = 0.4825	1058.32	1587.8
300.65 K, x1 = 0.6007	1086.03	1657
300.65 K, x1 = 0.6711	1100.3	1693.7
300.65 K, x1 = 0.7797	1119.26	1711.3
300.65 K, x1 = 0.8297	1127	1765.3
300.65 K, x1 = 0.9328	1140.81	1762.1
300.65 K, x1 = 1	1147.63	1784.8
303.15 K, x1 = 0.0492	837.209	1168.8
303.15 K, x1 = 0.0951	879.233	1232
303.15 K, x1 = 0.1987	947.318	1348.1
303.15 K, x1 = 0.29	992.018	1436
303.15 K, x1 = 0.3786	1024.86	1506.7
303.15 K, x1 = 0.4825	1056.74	1581.7
303.15 K, x1 = 0.6007	1084.54	1651
303.15 K, x1 = 0.6711	1098.87	1687.7
303.15 K, x1 = 0.7797	1117.84	1705.7
303.15 K, x1 = 0.8297	1125.59	1759.4
303.15 K, x1 = 0.9328	1139.38	1756.3
303.15 K, x1 = 1	1146.22	1779
305.65 K, x1 = 0.0492	835.006	–
305.65 K, x1 = 0.0951	877.153	–
305.65 K, x1 = 0.1987	945.436	–
305.65 K, x1 = 0.29	990.259	–
305.65 K, x1 = 0.3786	1023.19	–
305.65 K, x1 = 0.4825	1055.17	–
305.65 K, x1 = 0.6007	1083.06	–
305.65 K, x1 = 0.6711	1097.42	–
305.65 K, x1 = 0.7797	1116.4	–
305.65 K, x1 = 0.8297	1124.17	–
305.65 K, x1 = 0.9328	1137.95	–
305.65 K, x1 = 1	1144.8	–
